Results reported in paper PMC11547093, “Novel Phenoxyalkanoic Acid Derivatives as Free Fatty Acid Receptor 4 Agonists for Treating Type 2 Diabetes Mellitus” (International Journal of Molecular Sciences, 2024).
Blank lines part the entries; values can stand above or below the compound they belong to.

How the values were obtained:
[1] = target: T1, human FFAR4 (Homo sapiens, UniProt Q5NUL3); test: cell-based
T1 sequence (Q5NUL3 1-361): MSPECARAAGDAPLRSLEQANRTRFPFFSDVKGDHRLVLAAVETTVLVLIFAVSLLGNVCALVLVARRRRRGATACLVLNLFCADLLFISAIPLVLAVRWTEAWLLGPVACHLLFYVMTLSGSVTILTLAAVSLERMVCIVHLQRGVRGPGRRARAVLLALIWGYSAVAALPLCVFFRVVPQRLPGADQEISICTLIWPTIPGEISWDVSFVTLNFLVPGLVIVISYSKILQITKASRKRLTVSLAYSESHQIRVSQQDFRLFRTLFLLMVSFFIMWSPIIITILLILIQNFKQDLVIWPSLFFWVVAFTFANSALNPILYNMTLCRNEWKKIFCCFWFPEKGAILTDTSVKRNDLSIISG

[2] = target: T2, human FFAR1 (Homo sapiens, UniProt O14842); test: calcium influx assay, hFFAR1 (hGPR40) agonistic activity in transfected CHO cells; type: cell-based
T2 construct: expressed in transfected cells; host or cells: CHO cells

[3] = test system: DIO mice; test: anti-hyperglycemic effects (OGTT, insulin) in diet-induced obese (DIO) mice; type: in vivo, C57BL/6 mice; conditions: for reduction of blood glucose AUC versus vehicle-treated group: AUC -30 to 120 min
Description: During the experimental period, plasma insulin levels were measured 30 min after glucose administration using an insulin ELISA Kit.
Plasma insulin levels were measured using a mouse insulin RIA kit 30 min after oral glucose loading (Beijing North Institute of Biological Technology, Beijing, China).

[4] = pharmacokinetic study in ICR mice; type: in vivo; conditions: oral 10 mg/kg
Description: The AUC was calculated using the trapezoidal method.
Plasma was collected and precipitated using two volumes of acetonitrile containing an internal standard. This step was followed by centrifugation at 15.680 g for 10 min after vortexing for 5 min. The supernatant was diluted with acetonitrile, and 10 µL of the supernatant was analyzed by Waters LC-PDA-MS/MS to determine plasma drug levels. Pharmacokinetic parameters were determined using mean data from four mice at each time point. Statistical analysis of the data was performed using the DAS 2.1.1 statistical software program (BioVoice, Shanghai, China).

[5] = test system: normal ICR mice; test: oral glucose tolerance test in normal ICR mice; conditions: 20 mg/kg by gavage 30 min before glucose 2 g/kg, AUC 0-120 min
Description: Compounds (20 mg/kg) or the vehicle was administered by gavage 30 min before glucose administration (2 g/kg). […] The test compounds were dissolved in 0.5% methyl cellulose (MC) and vortexed before the study initiation. […] The exact dose volume was calculated separately for each animal. […] Blood glucose levels were measured using blood glucose test strips (Sannuo GA-3 type; Changsha, China).

T2 sequence (O14842 whole entry): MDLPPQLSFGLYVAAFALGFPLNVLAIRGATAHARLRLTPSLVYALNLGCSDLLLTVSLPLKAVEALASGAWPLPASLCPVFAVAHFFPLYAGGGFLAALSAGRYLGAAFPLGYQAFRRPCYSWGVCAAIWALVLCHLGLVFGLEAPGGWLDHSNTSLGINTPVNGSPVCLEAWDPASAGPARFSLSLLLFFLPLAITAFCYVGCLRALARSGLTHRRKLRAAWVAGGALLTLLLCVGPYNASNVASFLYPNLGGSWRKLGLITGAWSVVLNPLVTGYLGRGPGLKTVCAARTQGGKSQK

EC50 [1]: 279 nM
Structure (SMILES): Cc1ccc(-c2ccc(F)cc2NC(=O)c2ccc(OCCCCC(=O)O)cc2C)cc1 [Compound 9f, 5-(4-((4-fluoro-4′-methyl-[1,1′-biphenyl]-2-yl)carbamoyl)-3-methylphenoxy)pentanoic acid]

EC50 [1]: 218 nM
Structure (SMILES): Cc1ccc(-c2ccc(F)cc2NC(=O)c2ccc(OCCCCC(=O)O)c(C)c2)cc1 [Compound 6f, 5-(4-((4-fluoro-4′-methyl-[1,1′-biphenyl]-2-yl)carbamoyl)-2-methylphenoxy)pentanoic acid]

potency in stimulating FFAR4 over FFAR1 (selectivity) ([2]; FFAR4 versus FFAR1): approximately 400 fold | EC50 ([2]; human FFAR1 transfected CHO cells, calcium influx): 32900 nM | hypoglycemia during the experiment ([3]; doses up to 100 mg/kg oral): no hypoglycemia was observed | Tmax ([4]; male, mouse, plasma): 0.5 h | AUC ([4]; male, mouse, plasma, 0 to 24 h, mean ± SD of four mice): 9830 ± 2930 ng·h/mL | Cmax ([4]; male, mouse, plasma, 0.5% methyl cellulose, mean ± SD of four mice): 3140 ± 1150 ng/mL | half-life ([4]; male, mouse, plasma, mean ± SD of four mice): 1.51 ± 0.51 h | Cmax relative to TUG-891 [4]: 2.5 times | EC50 [1]: 78.6 nM
Structure (SMILES): Cc1ccc(-c2ccc(F)cc2NC(=O)c2ccc(OCC(=O)O)c(F)c2)cc1 [Compound 10f, 2-(2-fluoro-4-((4-fluoro-4′-methyl-[1,1′-biphenyl]-2-yl)carbamoyl)phenoxy)acetic acid]
reduction of blood glucose AUC versus vehicle-treated group ([3]; 30 mg/kg oral 30 min before glucose 2 g/kg): 20.1% | reduction of blood glucose AUC versus vehicle-treated group ([3]; 100 mg/kg oral 30 min before glucose 2 g/kg): 32.4% | hypoglycemic effect ([3]; doses exceeding 10 mg/kg oral): significant hypoglycemic activity | plasma insulin level versus control group ([3]; doses greater than 10 mg/kg, 30 min after glucose administration): significantly higher | hypoglycemic effect ([3]; lower doses 1 mg/kg and 3 mg/kg oral): did not exhibit significant hypoglycemic effects | reduction of blood glucose AUC versus vehicle-treated group [5]: 30.8%

EC50 [1]: 236 nM
Structure (SMILES): Cc1ccc(-c2ccc(F)cc2NC(=O)c2ccc(OCCCCC(=O)O)cc2)cc1 [Compound 3f, 5-(4-((4-fluoro-4′-methyl-[1,1′-biphenyl]-2-yl)carbamoyl)phenoxy)pentanoic acid]

EC50 [1]: 189 nM
Structure (SMILES): Cc1ccc(-c2ccc(F)cc2NC(=O)c2ccc(OCC(=O)O)cc2C)cc1 [Compound 7f, 2-(4-((4-fluoro-4′-methyl-[1,1′-biphenyl]-2-yl)carbamoyl)-3-methylphenoxy)acetic acid]

EC50 [1]: 127 nM
Structure (SMILES): Cc1ccc(-c2ccc(F)cc2NC(=O)c2ccc(OCCCCC(=O)O)c(F)c2)cc1 [Compound 12f, 5-(2-fluoro-4-((4-fluoro-4′-methyl-[1,1′-biphenyl]-2-yl)carbamoyl)phenoxy)pentanoic acid]

EC50 [1]: 93.2 nM
Structure (SMILES): Cc1ccc(-c2ccc(F)cc2NC(=O)c2ccc(OCCCC(=O)O)c(F)c2)cc1 [Compound 11f, 4-(2-fluoro-4-((4-fluoro-4′-methyl-[1,1′-biphenyl]-2-yl)carbamoyl)phenoxy)butanoic acid]
reduction of blood glucose AUC versus vehicle-treated group [5]: 20.0%

EC50 [1]: 136 nM
Structure (SMILES): Cc1ccc(-c2ccc(F)cc2NC(=O)c2ccc(OCC(=O)O)cc2)cc1 [Compound 1f, 2-(4-((4-fluoro-4′-methyl-[1,1′-biphenyl]-2-yl)carbamoyl)phenoxy)acetic acid]

EC50 [1]: 246 nM
Structure (SMILES): Cc1ccc(-c2ccc(F)cc2NC(=O)c2ccc(OCCCC(=O)O)cc2C)cc1 [Compound 8f, 4-(4-((4-fluoro-4′-methyl-[1,1′-biphenyl]-2-yl)carbamoyl)-3-methylphenoxy)butanoic acid]

EC50 [1]: 113 nM
Structure (SMILES): Cc1ccc(-c2ccc(F)cc2NC(=O)c2ccc(OCCCC(=O)O)c(C)c2)cc1 [Compound 5f, 4-(4-((4-fluoro-4′-methyl-[1,1′-biphenyl]-2-yl)carbamoyl)-2-methylphenoxy)butanoic acid]
reduction of blood glucose AUC versus vehicle-treated group [5]: 16.7%

EC50 [1]: 145 nM
Structure (SMILES): Cc1ccc(-c2ccc(F)cc2NC(=O)c2ccc(OCC(=O)O)c(C)c2)cc1 [Compound 4f, 2-(4-((4-fluoro-4′-methyl-[1,1′-biphenyl]-2-yl)carbamoyl)-2-methylphenoxy)acetic acid]

EC50 [1]: 189 nM
Structure (SMILES): Cc1ccc(-c2ccc(F)cc2NC(=O)c2ccc(OCCCC(=O)O)cc2)cc1 [Compound 2f, 4-(4-((4-fluoro-4′-methyl-[1,1′-biphenyl]-2-yl)carbamoyl)phenoxy)butanoic acid]
